The nature of data set [1]: Pharmacokinetics and tissue distribution after single oral administration. The following applies: single oral dose 40 mg kg−1. It counts as in vivo, Sprague-Dawley rats. Here is the method: Finally, we evaluate the safety and pharmacokinetics of HBT to ensure its druggability. […] Single dose administration of HBT at 40 mg kg^−1 was uptaken rapidly with a maximal plasma concentration of ≈6.73 ng mL^−1 after 10 min (Figure S14A, Supporting Information).
Figure S13. Serum level of biochemical markers in mice of Ctrl and Ctrl + HBT groups. Data were analyzed using unpaired two-tailed t test and data were expressed as means ± SD, ns: no […]
Figure S14. Plasma concentration (A) and in vivo distribution (B) of HBT after single oral administration with dosage of 40mg/kg rat weight (n=5-6). The quantitation of HBT was performed by LC-MS/MS analysis. […]
or Fluo-4 AM working solution was added to each well and incubated at 37℃ for 20 minutes.
Then the cells were washed with PBS for 3 times and images were acquired using an ImageXpress Micro® Confocal High-Content Imaging System (Molecular Devices). The mean fluorescence intensity of cells positive for DCFH-DA or Fluo-4 AM staining was […]
4. Histology and Immunohistochemistry (IHC)
At the end of the experiment, mice were sacrificed and the hearts were harvested, fixed in 4% formalin, and paraffin embedded. Fibrosis was detected with Masson’s trichrome staining kit (Sigma) according to the manufacturer’s protocol. SGK1 expression of cardiomyocytes was determined by staining cells with antibodies specific for SGK1.
RT-PCR was performed to validate DEGs in the FoxO signaling pathway in response to Ext.R and also HBT’s effect on hypertrophic cardiomyocytes stimulated with phenylephrine. Total RNA isolation, reverse transcription and quantitative RT-PCR were performed using an Ultrapure RNA Kit, a HiFiScript First Strand cDNA Synthesis Kit, and an UltraSYBR Mixture Kit (CWBIO) respectively, according to the manufacturer's instructions. Relative target gene mRNA expression level was normalized to GAPDH. Primer sequences of genes […]
6. Pharmacokinetics studies
Twelve male Sprague-Dawley rats, weighing 250 ± 10 g, were purchased from Huafukang biological technology (Beijing, China). […]

Data set [2] relates to SGK1(S422D)-transfected primary cardiomyocytes. Briefly: S422D SGK1-transfected primary cardiac myocytes (western blot, confocal microscopy). It counts as cell-based, rat. The method, then:
Figure 5 HBT blocks induction of cardiac hypertrophic responses and the SGK1/FoxO1 signaling pathway. A) Cardiomyocytes were treated with 50 µmol PE in the presence or absence of Ext.R (50 µg mL^−1) or HBT (50 µmol) for 48 h. Cardiomyocytes were identified by cytoskeleton staining through the binding of phalloidin to F‐actin (green). Images were acquired using an ImageXpress Micro Confocal High‐Content Imaging System (Molecular Devices), with a 40 × PlanFluor objective. Relative cell area was quantified by the analysis module of […] High‐Content Image and Analysis Software (Molecular Devices). Control group (Ctrl), PE group, PE plus Ext.R group (Ext.R), and PE plus HBT group (HBT), n = 3 independent experiments, Scale bar, 50 µm. B,C) Quantification of relative ANP and BNP in cardiomyocytes treated with Ext.R or HBT, n = 3 independent experiments. D) Western blot analysis of related proteins in PE‐treated cardiomyocytes, n = 3–4 independent experiments. E) Co‐IP and western blot analysis of SGK1‐FoxO1 interaction in cardiomyocytes, n = 3 independent experiments. F) Western blot analysis of related proteins in nontransfected (control adenovirus) and in ^S422DSGK1‐transfected primary cardiac myocytes treated with DMSO as solvent control (^S422DSGK1‐transf. group) or HBT (50 µmol, ^S422DSGK1‐transf.+HBT group), n = 3 independent experiments. G) Confocal microscopy of nuclear translocation of FoxO1 in nontransfected (control adenovirus), ^S422DSGK1‐transfected cardiomyocytes treated with HBT (50 µmol) or DMSO as solvent control. Green signal represents FoxO1 and white arrow represents the translocation of FoxO1 to nuclei, n = 3 independent experiments, Scale bar, 25 µm. All data were analyzed using one‐way ANOVA and data were expressed as means ± SD, ##p < 0.01 versus Ctrl group, *p < 0.05, **p < 0.01 versus PE group or ^S422DSGK1‐transf. group.
In the present study, we studied HBT's effect on protein binding between SGK1 and FoxO1 by coimmunoprecipitation (Figure 5E). […] Nevertheless, as previously reported,^[ [30] ^] […] Supportively, after transfection with the SGK1(S422D) plasmid, we consistently detected increased cytoplasmic signal of FoxO1 compared to nontransfected cells in which the majority of FoxO1 signal was distributed in the nucleus.
SGK1 mutant plasmids and adenovirus were constructed by Vigene Bioscience. All the transfection assays were performed using Lipofectamine 2000 according to the manufacturer's protocol. Adenovirus (Ad‐^S422DSGK1) was diluted in DMEM and administered at a dose of 100 MOI in primary cardiomyocytes.

As to `O=c1c(O)c(-c2ccc(O)cc2)oc2c(O)c(O)cc(O)c12` [HBT, herbacetin], the Tmax in data set [1] (male, Sprague-Dawley, plasma, rat, read-out: time of maximal plasma concentration (converted)) is 10 min. Also, in data set [1] (at time of maximal plasma concentration), the “tissue distribution (heart, liver, kidney)” value was “readily detected”. Moreover, the maximal plasma concentration entry in data set [1] (rat) is “≈ 6.73 ng mL^−1”. Further, the “expression of STIM1” value in data set [2] (HBT 50 µmol) was “moderately inhibited”. Besides, the FoxO1 phosphorylation result in data set [2] (SGK1(S422D) expression, HBT 50 µmol) is listed as “reverse the alternation”. The FoxO1 subcellular localization result in data set [2] (SGK1(S422D) transfection, HBT 50 µmol, confocal microscopy) is “restrain FoxO1 in the nucleus”. Besides, in data set [2] (constitutively expressed SGK1, HBT 50 µmol), the “level of Orai1” value is recorded as “significantly inhibited”. The “phosphorylation of NDRG1” value in data set [2] (continuously-activated form of SGK1, HBT 50 μmol) is reported as “reduce the phosphorylation”.
